Test results from patent US8207230B2, “Functional role for cannabinoids in autonomic stability during sleep” (The Board of Trustees of the University of Illinois, priority 2001, dated 2012).

Columns and labels:
[1] = tested on: Sprague-Dawley rats; assay: Serotonin-induced apnea during REM sleep; assay type: in vivo; details: rat; for serotonin-induced increase in REM sleep apnea: pretreatment with 0.1 mg/kg intraperitoneal 15 minutes before 0.79 mg/kg serotonin; for frequency of apnea during REM sleep: intraperitoneal, serotonin 0.79 mg/kg alone vs saline
Method: (§1) Δ^9THC (dronabinol, Roxane Laboratories, Columbus, Ohio) was dissolved in DMSO: oleamide (ICN Biomedicals, Aurora, Ohio) was suspended in peanut oil with sonication for 20 minutes; and serotonin was dissolved in saline. The study was a fully nested, repeated measures crossover design, such that each animal received each of 12 intraperitoneal injections (1 ml/kg) exactly one time: vehicle alone (saline, DMSO, or peanut oil); Δ^9THC alone (0.1, 1.0, or 10.0 mg/kg); oleamide alone (0.1, 1.0, or 10.0 mg/kg); serotonin alone (0.79 mg/kg); or combination injection (0.1 mg/kg Δ^9THC followed, after 15 minutes, by 0.79 mg/kg serotonin or 0.1 mg/kg oleamide followed by 0.79 mg/kg serotonin). Each injection was made 15 minutes prior to polygraphic recording for 6 hours (10:00-16:00). Successive recordings for an individual animal were separated by at least three days and the treatments were given in random order.
(§2) Respiration was recorded by placing each animal, unrestrained, inside a single chamber plethysmograph (PLYUN1R/U; Buxco Electronics, Sharon, Conn.; dimension 6 in.×10 in.×6 in.) ventilated with a bias flow of fresh room air at a rate of 2 L/min. A cable plugged onto the animal's connector and passed through a sealed port was used to carry the bioelectrical activity from the head implant.
An accepted physiological animal model [rat; Monti, et al., Pharamcol. Biochem. Behav., 51:125-131; (1995)] of sleep apnea was used to assess the effects of a cannabinoid receptor agonist activity and/or agents having cannabimimetic activity. More specifically, sleep apneas, defined as cessation of respiratory effort for at least 2.5 seconds, were scored for each recording session and were associated with the stage in which they occurred: NREM or REM sleep. The duration requirement of 2.5 seconds represented at least 2 “missed” breaths, which is therefore analogous to a 10 second apnea duration requirement in humans, which also reflects 2-3 missed breaths. The events detected represent central apneas because decreased ventilation associated with obstructed or occluded airways would generate an increased plethysmographic signal, rather than a pause. An apnea index (AI), defined as apneas per hour in a stage was separately determined for NREM and REM sleep. The effects of sleep stage (NREM vs. REM) and injection (control vs. test compounds) were tested using ANOVA with repeated measures. Multiple comparisons were controlled using Fisher's protected least significant difference (PLSD). In addition, the timing and volume of each breath were scored by automatic analysis (Experimenters' Workbench; Datawave Technologies, Longmont, Colo.). […]

[2] = tested on: Sprague-Dawley rats; assay: Respiratory rate, minute ventilation and tidal volume by plethysmography; assay type: in vivo; details: rat; for average respiratory rate (RR) / respiratory minute ventilation: intraperitoneal; for respiratory minute ventilation: compared with the effects on RR
Method: as §1, §2
The bias flow of room air (2 l/min) was more than one order of magnitude greater than the alveolar ventilation of the rat, ensuring that no rebreathing occurred. Thermal fluctuations associated with tidal respiration induced changes in plethysmograph pressure proportional to tidal volume. Plethysmograph pressure was monitored using a Validyne DP45-14 differential pressure transducer (±2 cm H20). Prior to each experimental study, the plethysmograph was calibrated for tidal volume using the method described by Epstein et al. (J. Appl. Physiol., 49, 1107 (1980)). An adaptive threshold algorithm (Datawave Systems, Longmont, Colo.) was used to measure the duration and tidal amplitude of each breath in each recording. From these values, instantaneous respiratory rate (RR) and minute ventilation (MV) were computed on a breath by breath basis. Respiratory variability was assessed by calculating the standard deviations of RR and MV for each 10 second recording epoch. These standard deviations were then averaged separately for each sleep/wake state.
(§3) An accepted physiological animal model [rat; Monti, et al., Pharamcol. Biochem. Behav., 51:125-131; (1995)] of sleep apnea was used to assess the effects of a cannabinoid receptor agonist activity and/or agents having cannabimimetic activity. More specifically, sleep apneas, defined as cessation of respiratory effort for at least 2.5 seconds, were scored for each recording session and were associated with the stage in which they occurred: NREM or REM sleep. The duration requirement of 2.5 seconds represented at least 2 “missed” breaths, which is therefore analogous to a 10 second apnea duration requirement in humans, which also reflects 2-3 missed breaths. The events detected represent central apneas because decreased ventilation associated with obstructed or occluded airways would generate an increased plethysmographic signal, rather than a pause. An apnea index (AI), defined as apneas per hour in a stage was separately determined for NREM and REM sleep. The effects of sleep stage (NREM vs. REM) and injection (control vs. test compounds) were tested using ANOVA with repeated measures. Multiple comparisons were controlled using Fisher's protected least significant difference (PLSD). In addition, the timing and volume of each breath were scored by automatic analysis (Experimenters' Workbench; Datawave Technologies, Longmont, Colo.). For each animal the mean respiratory rate (RR) and minute ventilation (MV) was computed for W throughout the 6 hour control recording and used as a baseline to normalize respiration during sleep and during test compound administration in that animal. […]

[3] = tested on: Sprague-Dawley rats; assay: Sleep/wake architecture by EEG/EMG recording; assay type: in vivo; details: rat, intraperitoneal; for sleep/wake architecture: 6 hour recording
Method: Acclimatized animals were anesthetized for the implantation of cortical electrodes for electroencephalogram (EEG) recording and neck muscle electrodes for electromyogram (EMG) recording using a mixture of ketamine (Vedco, Inc., St. Joseph, Mo.; 80 mg/ml) and xylazine (Vedco, Inc., St. Joseph, Mo.; 5 mg/ml; 4:1, volume/volume) at a volume of 1 ml/kg body weight. The surface of the skull was exposed surgically and cleaned with a 20% solution of hydrogen peroxide followed by, a solution of 95% isopropyl alcohol. Next, a dental preparation of sodium fluoride: (Flura-GEL®, Saslow Dental, Mt. Prospect, Ill.) was applied to harden the skull above the parietal cortex and allowed to remain in place for 5 minutes. The fluoride mixture was then removed from the skull above the parietal cortex. The EEG electrodes consisting of four stainless steel machine screws, having leads attached thereto, were threaded into the skull to rest on the dura over the parietal cortex. A thin layer of Justi® resin cement (Saslow Dental, Mt. Prospect, Ill.) was applied to cover the screw heads (of screws implanted in the skull) and surrounding skull to further promote the adhesion of the implant. EMG electrodes consisting of two ball-shaped wires were inserted into the bilateral neck musculature. All leads (i.e., EEG and EMG leads) were soldered to a miniature connector (39F1401, Newark Electronics, Chicago, Ill.). Lastly, the entire assembly was fixed to the skull with dental cement.
as §1
Sleep and waking states were assessed using the biparietal EEG and nuchal EMG signals on 10-second epochs as described by Bennington et al. [Sleep 17:28-36 (1994)]. […] Sleep efficiency was measured as the percentage of total recorded epochs staged as NREM or REM sleep.

[4] = tested on: Sprague-Dawley rats; assay: Spontaneous sleep apnea (apnea index) by plethysmography in freely moving rats; assay type: in vivo; details: rat; for breaths with long duration in typical 6-hour recordings (FIG. 1A): vs vehicle recording; for time dependence of apnea suppression during the 6-hour recording period: NREM and REM sleep; for degree of apnea suppression, Δ^9THC compared with oleamide: highest dose (10.0 mg/kg)
Method: These recoding and data analysis methods have been described in detail elsewhere [Carley and Radulovacki (Chest., 115: 1397 (1999)].
Adult, male Sprague-Dawley rats (Sasco-King, Wilmington, Mass.; 11 per test group; 300 g) were maintained on a 12-hour light (08:00-20:00 hour)/12-hour dark (20:00-08:00 hour) cycle for one week, housed in individual cages and given ad libitum access to food and water. Following the one week of acclimatization, animals were subjected to the following surgical procedures.
as §1, §2
Sleep and waking states were assessed using the biparietal EEG and nuchal EMG signals on 10-second epochs as described by Bennington et al. [Sleep 17:28-36 (1994)]. This software discriminated wakefulness (W) as a high frequency low amplitude EEG with a concomitant high EMG tone, NREM sleep by increased spindle and […] activity together with decreased EMG tone, and REM sleep by a low ratio of a delta to theta activity and an absence of EMG tone. Sleep efficiency was measured as the percentage of total recorded epochs staged as NREM or REM sleep.
as §3

[5] = biological target: CB1 receptors (Homo sapiens, UniProt P21554); details: cited from earlier work
CB1 receptors, sequence (P21554 whole entry): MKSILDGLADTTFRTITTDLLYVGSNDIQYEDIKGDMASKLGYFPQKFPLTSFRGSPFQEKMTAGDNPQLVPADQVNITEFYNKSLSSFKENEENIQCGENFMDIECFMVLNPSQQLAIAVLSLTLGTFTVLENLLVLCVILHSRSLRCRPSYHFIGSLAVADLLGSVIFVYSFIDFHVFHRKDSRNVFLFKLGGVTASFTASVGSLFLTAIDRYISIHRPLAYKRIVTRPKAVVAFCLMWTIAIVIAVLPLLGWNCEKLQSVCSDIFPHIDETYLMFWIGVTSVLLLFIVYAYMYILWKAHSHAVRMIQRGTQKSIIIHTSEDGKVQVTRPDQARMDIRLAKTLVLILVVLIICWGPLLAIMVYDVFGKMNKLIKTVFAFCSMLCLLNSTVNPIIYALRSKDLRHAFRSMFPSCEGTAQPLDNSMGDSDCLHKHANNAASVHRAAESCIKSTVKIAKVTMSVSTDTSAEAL

[6] = biological target: CB2 receptors (Homo sapiens, UniProt P34972); details: cited from earlier work
CB2 receptors, sequence (P34972 whole entry): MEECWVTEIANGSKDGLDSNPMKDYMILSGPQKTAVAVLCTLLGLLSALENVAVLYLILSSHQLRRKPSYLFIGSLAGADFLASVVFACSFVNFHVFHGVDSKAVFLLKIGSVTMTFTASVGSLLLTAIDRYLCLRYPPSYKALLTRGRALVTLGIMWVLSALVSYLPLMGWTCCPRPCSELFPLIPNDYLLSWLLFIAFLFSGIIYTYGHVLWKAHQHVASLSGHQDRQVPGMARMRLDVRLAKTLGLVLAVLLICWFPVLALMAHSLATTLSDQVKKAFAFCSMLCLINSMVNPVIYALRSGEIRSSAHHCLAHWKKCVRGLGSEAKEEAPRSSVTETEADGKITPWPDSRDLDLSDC

[7] = 0.1-10.0 mg/kg, sleep/wake states
[8] = intraperitoneal, 0.1 mg/kg, administered alone
[9] = intraperitoneal, 1.0 mg/kg, vs vehicle
[10] = intraperitoneal, 10.0 mg/kg, vs vehicle

CCCCCCCC/C=C\CCCCCCCC(N)=O [oleamide]
serotonin-induced increase in REM sleep apnea [1]: completely blocked
respiratory rate (RR), statistical significance of elevation ([2]; 10.0 mg/kg vs. vehicle, p=0.03): achieved statistical significance only during wakefulness
average respiratory rate (RR) ([2]; 10.0 mg/kg, 6-hour recording): tended to increase
average respiratory rate (RR) [2, 7]: dose dependent elevation of RR
respiratory minute ventilation ([2]; 0.1-10.0 mg/kg): Equivalent effects
sleep/wake architecture ([3]; 0.1 mg/kg): increased REM sleep with decreased wakefulness
sleep/wake architecture ([3]; 1.0 mg/kg): increased REM sleep with decreased wakefulness
sleep/wake architecture ([3]; 10.0 mg/kg): increased NREM sleep with decreased REM sleep
breaths with long duration in typical 6-hour recordings (FIG. 1A) ([4]; 10.0 mg/kg): clear reduction in breaths with durations exceeding 1.5 seconds
apnea expression during REM sleep [4, 8]: neither Δ^9THC nor oleamide had any effect
frequency of apneas during NREM sleep ([4]; intraperitoneal, 0.1 mg/kg, vs vehicle): suppressed apnea expression
apnea expression during REM sleep [4, 9]: suppressed apnea expression
frequency of apneas during NREM sleep [4, 9]: suppressed apnea expression
apnea expression during REM sleep [4, 10]: suppressed apnea expression
frequency of apneas during NREM sleep [4, 10]: suppressed apnea expression
time dependence of apnea suppression during the 6-hour recording period ([4]; intraperitoneal): persisted throughout the 6 hour recording interval
degree of apnea suppression, Δ^9THC compared with oleamide ([4]; intraperitoneal): equivalent
binding affinity to CB1 receptors [5]: does not appear to bind with high affinity
binding affinity to CB2 receptors [6]: does not appear to bind with high affinity

NCCc1c[nH]c2ccc(O)cc12 [serotonin]
frequency of apnea during REM sleep [1]: significant increase in the frequency of apnea
frequency of apnea during REM sleep ([1]; listed as Serotonin): significant increase in REM sleep-apnea

CCCCCc1cc(O)c2c(c1)OC(C)(C)[C@@H]1CCC(C)=C[C@@H]21 [Δ^9THC, 9-tetrahydrocannabinol]
serotonin-induced increase in REM sleep apnea [1]: completely blocked
average respiratory rate (RR) ([2]; 10.0 mg/kg, 6-hour recording): significantly reduced in all sleep/wake states
average respiratory rate (RR) [2, 7]: dose dependent reduction in RR
respiratory minute ventilation ([2]; 0.1-10.0 mg/kg): Equivalent effects
change in REM sleep expression ([3]; highest dose tested (10.0 mg/kg), p=0.0002): −66%
breaths with long duration in typical 6-hour recordings (FIG. 1A) ([4]; 10.0 mg/kg): clear reduction in breaths with durations exceeding 1.5 seconds
apnea expression during REM sleep [4, 8]: neither Δ^9THC nor oleamide had any effect
frequency of apneas during NREM sleep [4, 9]: reduced the frequency of apneas
apnea expression during REM sleep [4, 10]: significant decrease
frequency of apneas during NREM sleep [4, 10]: reduced the frequency of apneas
spontaneous apnea during all sleep stages ([4]; intraperitoneal, 0.1-10.0 mg/kg, 6-hour recording, vs vehicle): strongly suppressed spontaneous apnea
time dependence of apnea suppression during the 6-hour recording period ([4]; intraperitoneal): not time-dependent
degree of apnea suppression, Δ^9THC compared with oleamide ([4]; intraperitoneal): equivalent
